# Experimental data reported in patent US8772488B2 (Shanghai Institute of Pharmaceutical Industry, priority 2009, dated 2014).
# Legend:
# [1] = Influence factor test (stability under heat, light, high humidity; HPLC purity); assay type: physicochemical
# Description: Experimental method: refer to Pharmacopoeia of the People's Republic of China. 2005 ed. Part 2. Appendix XIX C
# HPLC conditions: instrument: Agilent 1100
# Chromatographic column: Phenomenex Hyperclone 5μ BDS C18
# Mobile phase: acetonitrile: KH2PO4 (10 mM)=70:30
# Column temperature: 40° C.
# [2] = Solubility of acetic acid solvate (0.1N hydrogen chloride aqueous solution); assay type: physicochemical; conditions: for Solubility (0.1N hydrogen chloride aqueous solution), descriptive term: Chinese Pharmacopoeia 2005 General Notices
# Description: Sample Sources: the Same as Example 10
# Experimental method: refer to Pharmacopoeia of the People's Republic of China. 2005 ed. Part 2. General Notices.
# platelet aggregation = conditions: cited from earlier work
# [3] = cited from earlier work
Compound,Purity (HPLC area normalization) tR 6.2 ([1]; 0 day),Purity (HPLC area normalization) tR 6.2 ([1]; 60° C. for 5 days),Purity (HPLC area normalization) tR 6.2 ([1]; 60° C. for 10 days),Purity (HPLC area normalization) tR 6.2 ([1]; RH 92.5% 5 days),Purity (HPLC area normalization) tR 6.2 ([1]; RH 92.5% 10 days),Purity (HPLC area normalization) tR 6.2 ([1]; light for 5 days),Purity (HPLC area normalization) tR 6.2 ([1]; light for 10 days),"Solubility (0.1N hydrogen chloride aqueous solution), descriptive term [2]",Inhibition of platelet aggregation (platelet aggregation),Water solubility compared to hydrochloride [3],Stability of crystal A compared with crystal B ([1]; stability test),"Stability compared with X1 and X2 ([1]; under all the conditions of light, 60° C., and RH 92.5%)",Solubility compared with prasugrel hydrobromate and hydrochlorate [2]
CC(=O)Oc1cc2c(s1)CCN(C(C(=O)C1CC1)c1ccccc1F)C2 (stereo not drawn) [Example X1],99.08,98.89,98.29,98.39,98.20,98.49,98.20,slightly soluble,good activity,,,,
Br.CC(=O)Oc1cc2c(s1)CCN(C(C(=O)C1CC1)c1ccccc1F)C2 (stereo not drawn) [Example X2],99.83,99.39,99.01,96.62,96.12,99.40,98.83,degraded,,improved,,,
"CC(=O)Oc1cc2c(s1)CCN(C(C(=O)C1CC1)c1ccccc1F)C2 (stereo not drawn) [Example X3, 2-acetoxy-5-(α-cyclopropylcarbonyl-2fluorobenzyl)-4,5,6,7-tetrahydrothieno[3,2-c]pyridine hydrobromate]",99.84,99.72,99.46,99.65,99.50,99.56,99.57,easily soluble,,,better than crystal B,more stable,better solubility
maleate,,,,,,,,,good activity,,,,
